Experimental data as given in patent US7265155B2 (NBS Pharmaceuticals, Inc., priority 1996, dated 2007).
Marks after values point to notes of the source that are not given here.

Tests used:
Frings mouse = assay: Rotarod motor impairment (toxicity) in the Frings mouse; type: in vivo; conditions: for Number Showing Toxicity of Eight Mice Tested at 30 minutes / Number Showing Toxicity of Eight Mice Tested at 120 minutes: Table 5; for Number Showing Toxicity of Four Mice Tested at 30 minutes / Number Showing Toxicity of Four Mice Tested at 120 minutes: Table 4
Method: (§1) The average seizure score can be calculated for each group of mice employed in the dose-response study. At each dose, mice are also tested on a rotarod for testing of motor impairment (toxicity). Testing for motor impairment on the rotarod involves placing a mouse for a three-minute trial period on a one-inch diameter rod rotating at six revolutions per minute. If the mouse falls off of the rotating rod three times within the three-minute time period, it is considered a toxic response.

[1] = system: Frings audiogenic seizure-susceptible mouse; assay: Frings audiogenic seizure-susceptible mouse model of epilepsy; type: in vivo; conditions: for anticonvulsant activity when administered orally: oral
From the text: One useful model is provided by the Frings audiogenic seizure-susceptible mouse, a model of reflex epilepsy. At the time of testing, individual mice are placed into a round Plexiglas chamber and exposed to a sound stimulus of 110 decibels, 11 kHz, for 20 seconds. Animals not displaying tonic hindlimb extensions were considered protected. In addition, the seizure score for each mouse can be recorded as: (1) running for less than 10 seconds; (2) running for greater than 10 seconds; (3) clonic activity of limbs and/or vibrissae; (4) forelimb extension/hindlimb flexion; and (5) hindlimb extension.
as §1

[2] = in vivo; cited from earlier work
rat = assay: Rotarod Test in the Rat; type: in vivo; conditions: for Number of Rats Falling: ten rats per group
Method: This is a test of neurological deficits using the method described by Dunham et al., J. Am. Pharm. Assoc. 46: 208-09 (1957). Rats or mice are placed on a rod rotating at a speed of eight turns per minute. The number of animals which drop off the rod before three minutes is counted and the drop-off times are recorded (maximum: 180 seconds). Ten rats are studied per group and the test is performed blind. The test compound is administered i.p. 60 minutes prior to testing. Diazepam, a benzodiazepine, is administered at 8 mg/kg, i.p., as the reference substance. A control group administered the vehicle is also included in the study.

[3] = reported in the literature; cited from earlier work
[4] = 4 mg/kg i.p. 60 minutes before test
[5] = 8 mg/kg i.p. 60 minutes before test

CC(C)C(C)C(N)=O (stereo not shown) [2-methylisovaleramide]
Number Showing Toxicity of Eight Mice Tested at 30 minutes (Frings mouse; 30 mg/kg oral): 0
Number Showing Toxicity of Eight Mice Tested at 120 minutes (Frings mouse; 30 mg/kg oral): 0
Number Showing Toxicity of Eight Mice Tested at 30 minutes (Frings mouse; 100 mg/kg oral): 0
Number Showing Toxicity of Eight Mice Tested at 120 minutes (Frings mouse; 100 mg/kg oral): 0
Number Showing Toxicity of Eight Mice Tested at 30 minutes (Frings mouse; 300 mg/kg oral): 2^a
Number Showing Toxicity of Eight Mice Tested at 120 minutes (Frings mouse; 300 mg/kg oral): 0
signs of toxicity in the animals counted as toxic (Frings mouse; Table 5 footnote, 300 mg/kg oral, 30 minutes): ^ano definitive signs of toxicity such as sedation or ataxia, animals just fell off
Number Protected of Four Mice Tested at 30 minutes ([1]; Table 5, 30 mg/kg oral): 0
Number Protected of Four Mice Tested at 120 minutes ([1]; Table 5, 30 mg/kg oral): 0
Number Protected of Four Mice Tested at 30 minutes ([1]; Table 5, 100 mg/kg oral): 1
Number Protected of Four Mice Tested at 120 minutes ([1]; Table 5, 100 mg/kg oral): 0
Number Protected of Four Mice Tested at 30 minutes ([1]; Table 5, 300 mg/kg oral): 4
Number Protected of Four Mice Tested at 120 minutes ([1]; Table 5, 300 mg/kg oral): 1
anticonvulsant activity when administered orally [1]: displayed anticonvulsant activity when administered orally

CCN(CC)C(=O)CC(C)C [N,N-Diethyl isovaleramide]
CNS properties [2]: CNS stimulant (convulsant) properties

CN1C(=O)CN=C(c2ccccc2)c2cc(Cl)ccc21 [Diazepam, diazepam]
Drop-Off Time % change from control (rat; [4]): −59%
Drop-Off Time (sec) Mean ± S.E.M. (rat; [4]): 55.8 ± 20.6^d sec
Number of Rats Falling (rat; [4]): 9
Drop-Off Time % change from control (rat; [5]): −88%
Drop-Off Time (sec) Mean ± S.E.M. (rat; [5]): 16.3 ± 6.4^f sec
Number of Rats Falling (rat; [5]): 10+ ^e
rotarod performance in the rat (rat; i.p. 60 minutes before test, isovaleramide 128, 256 and 512 mg/kg): dose-dependently decreased rotarod performance

CC(C)CC(=O)NCC(N)=O [N-(2-acetamido)isovaleramide]
Number Showing Toxicity of Four Mice Tested at 30 minutes (Frings mouse; 30 mg/kg oral): 0
Number Showing Toxicity of Four Mice Tested at 120 minutes (Frings mouse; 30 mg/kg oral): 0
Number Showing Toxicity of Four Mice Tested at 30 minutes (Frings mouse; 100 mg/kg oral): 0
Number Showing Toxicity of Four Mice Tested at 120 minutes (Frings mouse; 100 mg/kg oral): 0
Number Showing Toxicity of Four Mice Tested at 30 minutes (Frings mouse; 300 mg/kg oral): 0
Number Showing Toxicity of Four Mice Tested at 120 minutes (Frings mouse; 300 mg/kg oral): 0
Number Showing Toxicity of Four Mice Tested at 30 minutes (Frings mouse; 1000 mg/kg oral): 1
Number Showing Toxicity of Four Mice Tested at 120 minutes (Frings mouse; 1000 mg/kg oral): 0
Number Protected of Four Mice Tested at 30 minutes ([1]; Table 4, 30 mg/kg oral): 0
Number Protected of Four Mice Tested at 120 minutes ([1]; Table 4, 30 mg/kg oral): 0
Number Protected of Four Mice Tested at 30 minutes ([1]; Table 4, 100 mg/kg oral): 0
Number Protected of Four Mice Tested at 120 minutes ([1]; Table 4, 100 mg/kg oral): 0
Number Protected of Four Mice Tested at 30 minutes ([1]; Table 4, 300 mg/kg oral): 0
Number Protected of Four Mice Tested at 120 minutes ([1]; Table 4, 300 mg/kg oral): 0
Number Protected of Four Mice Tested at 30 minutes ([1]; Table 4, 1000 mg/kg oral): 3
Number Protected of Four Mice Tested at 120 minutes ([1]; Table 4, 1000 mg/kg oral): 4
anticonvulsant activity when administered orally [1]: displayed anticonvulsant activity when administered orally

CC(C)CC(=O)O [Isovaleric acid, isovaleric acid]
anticonvulsant activity [3]: inactive as an anticonvulsant
